Here are results for 5 compounds from publication PMC7218274 (Antiviral Chemistry & Chemotherapy, 2020).

Data set [1] deals with HAdV-19. Put plainly: MTT-based antiviral assay, HAdV-19-infected MT-2 cells. Type of data set: cell-based, Human adenovirus type 19. The following applies: for EC50: Human mastadenovirus D, MT2, 120 h, HAdV-19, five days, MTT, mean ± 1 SD, read-out: EC50 (50% antiviral effective concentration). Here is the method:
(§1) MT-2 cells and A549 cells were mixed with HAdV-19, 2× 10^5 cells/mL with 10^4 TCID50/mL and 1× 10^5 cells/mL with 3 × 10^3 TCID50/mL, respectively, in plate wells in the presence or absence of various concentrations of the compounds (MOI: 0.035 for MT-2 cells and 0.021 for A549). The plates were incubated for five days. At the end of the incubation period, CPE was determined using the MTT assay, as described previously.[11],[12] Thus, 25 µl of the MTT solution (7.5 mg/ml) in phosphate-buffered saline (Wako, Japan) was added to each well of the plate. Then, the plate was incubated at 37°C for 2 h. After incubation, 150 µl of medium was removed with care in order not to draw cells. To solubilize the formazan crystals and neutralize the viral infectivity, 100 μl of acidified isopropanol (4 ml concentrated HCl per 1 l of isopropanol) containing 10% (v/v) Triton X-100 was added to each well. Formazan crystals were completely solubilized by pipetting up and down, the absorbance at 560 nm of the wells was read by microplate reader (GloMax, Promega, Japan). […] The cytotoxicity of each compound was measured in parallel using the MTT assay. The 50% cytotoxicity concentration (CC50) was defined as the drug concentration that reduces cell viability by 50%.
On the technique in general: Tetrazolium dyes change colour on reduction, which living cells bring about.

Data set [2] can be described thus: MTT cytotoxicity assay, MT-2 cells. Type of data set: cell-based, human. Particulars: human, MTT, mean ± 1 SD, read-out: CC50 (50% cytotoxicity concentration). As for the experimental part: (§2) MT-2 cells and A549 cells were mixed with HAdV-19, 2× 10^5 cells/mL with 10^4 TCID50/mL and 1× 10^5 cells/mL with 3 × 10^3 TCID50/mL, respectively, in plate wells in the presence or absence of various concentrations of the compounds (MOI: 0.035 for MT-2 cells and 0.021 for A549). The plates were incubated for five days. At the end of the incubation period, CPE was determined using the MTT assay, as described previously.[11],[12] Thus, 25 µl of the MTT solution (7.5 mg/ml) in phosphate-buffered saline (Wako, Japan) was added to each well of the plate. Then, the plate was incubated at 37°C for 2 h. After incubation, 150 µl of medium was removed with care in order not to draw cells. To solubilize the formazan crystals and neutralize the viral infectivity, 100 μl of acidified isopropanol (4 ml concentrated HCl per 1 l of isopropanol) containing 10% (v/v) Triton X-100 was added to each well. Formazan crystals were completely solubilized by pipetting up and down, the absorbance at 560 nm of the wells was read by microplate reader (GloMax, Promega, Japan). The 50% antiviral effective concentration (EC50) was defined as the drug concentration that protects 50% of virus-infected cells from virus-induced cell damage and/or death.[12] The cytotoxicity of each compound was measured in parallel using the MTT assay. The 50% cytotoxicity concentration (CC50) was defined as the drug concentration that reduces cell viability by 50%. Data shown represent mean EC50 and CC50values (±1 standard deviation) derived from the results of two to four independent experiments conducted in duplicate.

A short description of data set [3]: MTT cytotoxicity assay, A549 cells. It is filed as cell-based, human. Particulars: human, MTT, mean ± 1 SD, read-out: CC50 (50% cytotoxicity concentration). As for the experimental part: as §2
Data set [4] has as its system HAdV-19. Briefly: MTT-based antiviral assay, HAdV-19-infected A549 cells. Type of data set: cell-based, Human adenovirus type 19. The following applies: for EC50: Human mastadenovirus D, 120 h, HAdV-19, five days, MTT, mean ± 1 SD, read-out: EC50 (50% antiviral effective concentration). As for the experimental part: as §1
Data set [5] deals with MT-2 cells. Put plainly: MTT cytotoxicity assay, MT-2 cells. Type of data set: cell-based, human. The following applies: at a concentration of 100 µM. Here is the method:
as §2

The test system of data set [6] is A549 cells. Put plainly: MTT cytotoxicity assay, A549 cells. It is filed as cell-based, human. The following applies: at a concentration of 100 µM. As for the experimental part:
as §2

As for `NC(=O)c1ncn([C@@H]2O[C@H](CO)[C@@H](O)[C@H]2O)n1` [RBV, ribavirin], the EC50 in data set [1] is more than 18 µM; in data set [4], more than 53 µM. In addition, in data set [1] (MTT assay), the “antiviral activity against HAdV-19 (in words)” value is “little antiviral activity”. Besides, the values for the CC50 at 5 days in data set [2] and in data set [3] were 18 ± 1 µM and 53 ± 21 µM, respectively.
As to `Nc1ccn(C[C@@H](CO)OCP(=O)(O)O)c(=O)n1` [CDV, (S)-1–(3-hydroxy-2-phosphonylmethoxypropyl)cytosine], the figures for the “SI (selectivity index, ratio of CC50 and EC50)” value in data set [1] and in data set [4] were more than 1.6 and more than 24, respectively. The figures for the EC50 in data set [1] and in data set [4] were 62 ± 26 µM and 4.2 ± 1.1 µM, respectively. Also, the CC50 at 5 days in data set [2] and in data set [3] was more than 100 µM throughout. Further, the tolerance by cells result in data set [5] and in data set [6] was “tolerated” in each case.
Regarding `Nc1ccn([C@H]2CC[C@@H](CO)O2)c(=O)n1` [ddC, 2′,3′-dideoxycytidine], the “SI (selectivity index, ratio of CC50 and EC50)” value in data set [1] is more than 38; in data set [4], more than 286. In addition, the EC50 in data set [1] came to 2.6 ± 0.4 µM; in data set [4] it was 0.35 ± 0.04 µM. The CC50 at 5 days in data set [2] and in data set [3] was more than 100 µM throughout. Also, the tolerance by cells result in data set [5] and in data set [6] was “tolerated” throughout.
On to `Nc1nc(O)c2ncn(COC(CO)CO)c2n1` [GCV, ganciclovir], for which the “SI (selectivity index, ratio of CC50 and EC50)” value in data set [1] is more than 1.7; in data set [4] it was more than 1.9. Moreover, the EC50 in data set [1] was 60 ± 7 µM; in data set [4] it was 54 ± 27 µM. Also, the CC50 at 5 days in data set [2] and in data set [3] was more than 100 µM each time. Besides, the tolerance by cells result in data set [5] and in data set [6] was “tolerated” throughout.
As to `Cc1cn([C@H]2C[C@H](F)[C@@H](CO)O2)c(=O)[nH]c1=O` [FdT, 3′-deoxy-3′-fluorothymidine], the results for the EC50 in data set [1] and in data set [4] were 1.8 ± 0.2 µM and 0.03 ± 0.01 µM, respectively. The CC50 at 5 days is 36 ± 5 µM in data set [2] and 7.6 ± 4.2 µM in data set [3].
